The record followed here is patent US20230250054A1, “SELECTIVE HISTONE DEACETYLASE 6 INHIBITORS” (The Board of Trustees of the University of Illinois, priority 2020, published 2023).

Format in all cases: biochemical
One series concerns the target T1, HDAC6 (Homo sapiens, UniProt Q9UBN7).
T1 construct: our assay that uses approximately 0.6 nM concentration of the full-length enzyme; made in house; host or cells: HEK293/T17 cells, transient transfection
T1 sequence (Q9UBN7 1-1215): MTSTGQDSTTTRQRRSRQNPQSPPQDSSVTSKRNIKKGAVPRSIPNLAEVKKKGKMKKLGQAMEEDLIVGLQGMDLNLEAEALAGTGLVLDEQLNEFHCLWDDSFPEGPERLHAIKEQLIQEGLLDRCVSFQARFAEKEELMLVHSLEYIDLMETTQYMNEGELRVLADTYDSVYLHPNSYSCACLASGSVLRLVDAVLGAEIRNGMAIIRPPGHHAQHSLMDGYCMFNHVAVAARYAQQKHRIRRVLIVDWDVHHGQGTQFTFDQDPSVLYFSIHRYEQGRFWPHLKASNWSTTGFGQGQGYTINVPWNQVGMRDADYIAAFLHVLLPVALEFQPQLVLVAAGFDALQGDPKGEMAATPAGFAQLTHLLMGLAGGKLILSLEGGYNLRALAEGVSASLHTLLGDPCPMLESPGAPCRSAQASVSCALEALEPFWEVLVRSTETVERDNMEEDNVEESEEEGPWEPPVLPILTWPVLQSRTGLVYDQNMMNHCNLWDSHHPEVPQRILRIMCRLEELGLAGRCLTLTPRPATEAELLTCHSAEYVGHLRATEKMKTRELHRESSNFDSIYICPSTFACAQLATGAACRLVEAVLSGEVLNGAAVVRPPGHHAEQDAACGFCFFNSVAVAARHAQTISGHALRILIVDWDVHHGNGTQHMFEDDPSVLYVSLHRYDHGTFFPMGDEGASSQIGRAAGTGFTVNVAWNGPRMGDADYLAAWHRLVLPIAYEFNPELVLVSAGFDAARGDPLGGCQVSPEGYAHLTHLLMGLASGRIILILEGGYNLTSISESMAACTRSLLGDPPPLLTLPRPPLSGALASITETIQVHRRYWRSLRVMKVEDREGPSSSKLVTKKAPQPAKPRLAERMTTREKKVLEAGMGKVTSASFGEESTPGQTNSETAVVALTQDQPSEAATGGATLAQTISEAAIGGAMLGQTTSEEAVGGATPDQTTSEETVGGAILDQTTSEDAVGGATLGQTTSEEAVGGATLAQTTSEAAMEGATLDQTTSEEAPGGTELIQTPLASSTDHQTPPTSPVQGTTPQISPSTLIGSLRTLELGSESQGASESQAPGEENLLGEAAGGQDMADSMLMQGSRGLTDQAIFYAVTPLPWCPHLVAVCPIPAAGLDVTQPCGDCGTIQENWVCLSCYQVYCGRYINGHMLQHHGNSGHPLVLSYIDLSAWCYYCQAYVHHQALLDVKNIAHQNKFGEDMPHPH
In words: Fluorescence-based HDAC inhibition assay, HDAC6. Conditions: for LE (ligand efficiency): 1.4 × pIC50/number of heavy atoms; for selectivity over Class IIa isoforms HDAC4, 5, 7, and 9: HDAC6 vs HDAC4, 5, 7 and 9; for LipE (lipophilic ligand efficiency): pIC50 − clog Po/w. Here is the method:
(§1) Briefly, transiently transfected cells were harvested three days post-transfection and the cell pellets resuspended in a lysis buffer (50 mM Tris, 150 mM NaCl, 10 mM KCl, 2 mM MgCl2, 10% glycerol, 0.2% NP-40, 2 Units/mL benzonase, pH 8) supplemented with a cocktail of protease inhibitors (Roche, Basel, Switzerland). Cells were lysed by sonication (30 W; 3×20 s) on ice, and the cell lysate cleared by centrifugation at 40 000×g for 30 min at 4° C. […] Purified proteins were concentrated to 1 mg/mL, aliquoted, flash-frozen in liquid nitrogen, and stored at −80° C. until further use.
(§2) Briefly, individual HDACs were preincubated with dilution series of tested inhibitors (0-100 μM) in a 384-well plate in the total volume of 40 μL for 10 min at 37° C. in a reaction buffer comprising 50 mM HEPES, 140 mM NaCl, 10 mM KCl, 1 mM TCEP, 0.1% BSA, pH 7.4. Deacetylation reaction was started by the addition of 10 μL of a 10 μM substrate into the HDAC/inhibitor mixture. Following the 30 min incubation at 37° C., the reaction was terminated by the addition of 25 μL of the trypsin solution (4 mg/mL). Fluorescence development by trypsin was carried out at 37° C. for 15 and 60 min for Ac-GAK(Ac)-AMC and Boc-Lys(TFA)-AMC substrate, respectively. […] Non-linear regression analysis was employed to calculate IC50 values using the GraphPad Prism software. […] Reactions without the enzyme or the inhibitor were used to define 0% and 100% of the HDAC activity, respectively.

Another series addresses T2, HDAC3 (Homo sapiens, UniProt O15379).
T2 construct: made in house; host or cells: HEK293/T17 cells, transient transfection
The experiment in a line: Fluorescence-based HDAC inhibition assay, HDAC3. The following applies: for IC50: 10 μM Ac-GAK(Ac)-AMC substrate, mean of two experiments ± SEM. The procedure: as §1, §2

Another series deals with T3, HDAC5 (Homo sapiens, UniProt Q9UQL6).
T3 construct: made in house; host or cells: HEK293/T17 cells, transient transfection
T3 sequence (Q9UQL6 whole entry): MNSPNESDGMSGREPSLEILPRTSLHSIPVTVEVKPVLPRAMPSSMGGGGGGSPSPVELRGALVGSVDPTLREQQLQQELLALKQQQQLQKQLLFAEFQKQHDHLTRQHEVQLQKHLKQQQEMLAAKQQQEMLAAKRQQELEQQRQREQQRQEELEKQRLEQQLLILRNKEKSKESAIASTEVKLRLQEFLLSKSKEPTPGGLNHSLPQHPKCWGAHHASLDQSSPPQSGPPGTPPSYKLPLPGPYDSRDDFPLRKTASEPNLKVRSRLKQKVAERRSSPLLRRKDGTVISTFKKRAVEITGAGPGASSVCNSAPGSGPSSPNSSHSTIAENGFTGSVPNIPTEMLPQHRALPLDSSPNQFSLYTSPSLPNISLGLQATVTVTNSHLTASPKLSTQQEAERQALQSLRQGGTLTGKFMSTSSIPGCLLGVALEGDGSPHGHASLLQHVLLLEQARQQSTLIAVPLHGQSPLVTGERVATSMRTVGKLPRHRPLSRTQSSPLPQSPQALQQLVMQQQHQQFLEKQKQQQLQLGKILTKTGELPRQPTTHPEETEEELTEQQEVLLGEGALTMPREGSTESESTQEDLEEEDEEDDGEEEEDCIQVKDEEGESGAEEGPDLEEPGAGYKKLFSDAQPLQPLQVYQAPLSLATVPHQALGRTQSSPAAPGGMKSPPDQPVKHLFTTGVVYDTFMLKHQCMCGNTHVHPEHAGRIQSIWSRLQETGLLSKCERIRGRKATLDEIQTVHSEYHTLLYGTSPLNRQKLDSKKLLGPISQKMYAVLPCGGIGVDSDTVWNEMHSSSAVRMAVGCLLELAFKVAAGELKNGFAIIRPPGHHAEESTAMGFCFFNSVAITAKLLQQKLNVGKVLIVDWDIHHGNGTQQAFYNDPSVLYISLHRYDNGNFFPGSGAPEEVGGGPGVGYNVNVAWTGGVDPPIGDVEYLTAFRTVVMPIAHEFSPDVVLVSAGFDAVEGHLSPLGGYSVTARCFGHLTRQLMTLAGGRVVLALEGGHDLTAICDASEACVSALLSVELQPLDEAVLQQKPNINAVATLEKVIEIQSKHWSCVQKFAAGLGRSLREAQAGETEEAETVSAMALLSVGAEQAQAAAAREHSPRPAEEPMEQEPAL
In words: Fluorescence-based HDAC inhibition assay, HDAC5. The following applies: for IC50: 10 μM Boc-Lys(TFA)-AMC substrate, mean of two experiments ± SEM. Here is the method:
as §1, §2

[1] abbreviates: 10 μM Ac-GAK(Ac)-AMC substrate, mean of two experiments ± SEM.

T2 sequence (O15379 whole entry): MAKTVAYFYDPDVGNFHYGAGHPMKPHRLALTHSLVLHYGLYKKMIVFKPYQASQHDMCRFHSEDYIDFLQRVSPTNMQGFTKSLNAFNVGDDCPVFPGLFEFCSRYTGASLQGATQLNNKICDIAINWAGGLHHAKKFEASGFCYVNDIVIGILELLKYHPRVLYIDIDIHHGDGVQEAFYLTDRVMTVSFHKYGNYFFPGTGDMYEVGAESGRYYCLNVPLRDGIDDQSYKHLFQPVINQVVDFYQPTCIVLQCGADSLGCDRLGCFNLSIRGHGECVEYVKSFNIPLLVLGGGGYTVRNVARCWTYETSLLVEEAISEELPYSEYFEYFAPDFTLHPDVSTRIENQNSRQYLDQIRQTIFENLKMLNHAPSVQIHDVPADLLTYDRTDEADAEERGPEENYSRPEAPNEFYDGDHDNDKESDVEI
T2 sequence (Q9Y618 389-480 partner limits assumed): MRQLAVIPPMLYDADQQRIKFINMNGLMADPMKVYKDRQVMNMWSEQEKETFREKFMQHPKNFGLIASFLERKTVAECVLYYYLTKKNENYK

As to `NCc1ccc(NC(=O)N(CCCCO)Cc2ccc(C(=O)NO)cc2)cc1` [Compound 6a, 4-((3-(4-(Aminomethyl)phenyl)-1-(4-hydroxybutyl)ureido)methyl)-N-hydroxybenz-amide], on HDAC6, the “SI (HDAC6 selectivity index), HDAC6” value was found to be 1; the “LE (ligand efficiency)” value worked out at 0.47; the “selectivity over Class IIa isoforms HDAC4, 5, 7, and 9” value is on record as “thousand-fold selectivity”; the “LipE (lipophilic ligand efficiency)” value is listed as 7.57. The half-inhibitory concentration (IC50) at HDAC6 (setting [1]) was 0.4 nM. Further, the IC50 at HDAC6 (Table 2) stood at 0.4 nM. Further, at HDAC3, the “SI (HDAC6 selectivity index over HDAC3)” value is recorded as 880 and inhibition was half-maximal at 352 ± 2 nM (IC50). Moreover, at HDAC5, the “SI (HDAC6 selectivity index over HDAC5)” value was 8,550 and the IC50 was 3420 nM.
On to `O=C(NO)c1ccc(CN(CCCCO)C(=O)Nc2ccccc2)cc1` [Compound 6c, reference compound], for which, on HDAC6, the “SI (HDAC6 selectivity index), HDAC6” value is 1; the “LE (ligand efficiency)” value was determined as 0.50; the “selectivity over Class IIa isoforms HDAC4, 5, 7, and 9” value is reported as “thousand-fold selectivity”; the “LipE (lipophilic ligand efficiency)” value turned out to be 6.98. Further, at HDAC6 (setting [1]), it took 0.5 nM to reach half-maximal inhibition (IC50). The same molecule yielded an IC50 against HDAC3 of 581 ± 18 nM. The same molecule had an IC50 on HDAC5 of 9130 nM.
For the molecule `CCCCN(Cc1ccc(C(=O)NO)cc1)C(=O)Nc1ccc(CN)cc1` [Compound 6b, 4-((3-(4-(Aminomethyl)phenyl)-1-butylureido)methyl)-N-hydroxybenzamide], at HDAC6, the “SI (HDAC6 selectivity index), HDAC6” value is on record as 1; the “LE (ligand efficiency)” value worked out at 0.47; the “LipE (lipophilic ligand efficiency)” value is on record as 6.59. In addition, the IC50 on HDAC6 (setting [1]) was 0.9 ± 0.7 nM. In addition, on HDAC3, the “SI (HDAC6 selectivity index over HDAC3)” value turned out to be 492 and 443 ± 108 nM corresponded to half-maximal inhibition (IC50). At HDAC5, the “SI (HDAC6 selectivity index over HDAC5)” value is recorded as 11,200 and the IC50 was 10100 nM.

What is called IC50 is the concentration that inhibits the measured activity by half. Higher therefore signals weaker potency.
